The IC50 is the midpoint of a concentration-inhibition curve.

*1 amine or outer side, *2 acyl side, *3 side chain or, on linkers, in order; H or OH if unused. Where a SMILES comes first, the peptide text is derived from it. The star is where a group is joined. X1 = O=c1nc(N*)ccn1[C@@H]1O[C@H](CO)[C@@H](O)C1(F)F; Suc = O=C(CCC(=O)[*:2])[*:1]

A short description of the experiment: Substrate activity at ENT1 in human BXPC-3 cells assessed as inhibition of cell growth pretreated with ENT1 inhibitor nitrobenzylthioinosine for 5 mins measured after 72 hrs by SRB assay. (Sulforhodamine B stains cellular protein and so reports cell mass.)

As for `CSCC[C@H](NC(=O)[C@H](NC(=O)[C@@H]1CCCN1C(=O)[C@H](CC(C)C)NC(=O)[C@H](CCCCN)NC(=O)[C@@H](N)Cc1c[nH]c2ccccc12)C(C)C)C(N)=O`, the half-maximal inhibitory concentration (IC50) was above 1000 nM.
As to `CC(C)C[C@H](NC(=O)[C@@H](NC(=O)[C@@H]1CCCN1C(=O)[C@@H](NC(=O)[C@H](Cc1c[nH]c2ccccc12)NC(=O)CCC(=O)Nc1ccn([C@@H]2O[C@H](CO)[C@@H](O)C2(F)F)c(=O)n1)C(C)C)[C@@H](C)O)C(=O)N[C@@H](CCCCN)C(N)=O` ({X1-Suc}-WVPTLK-NH2), the half-maximal inhibitory concentration (IC50) was 381 nM.
For the molecule H-KLPVMW-NH2, the IC50 is above 1000 nM.
As for `CSCC[C@H](NC(=O)[C@@H](NC(=O)[C@@H]1CCCN1C(=O)[C@H](CC(C)C)NC(=O)[C@H](CCCCN)NC(=O)[C@H](Cc1c[nH]c2ccccc12)NC(=O)CCC(=O)Nc1ccn([C@@H]2O[C@H](CO)[C@@H](O)C2(F)F)c(=O)n1)C(C)C)C(N)=O` ({X1-Suc}-WKLPVM-NH2), the figure is 380 nM; as for H-WVPTLK-NH2, above 1000 nM.
As for `CSCC[C@H](NC(=O)[C@@H](NC(=O)[C@@H]1CCCN1C(=O)[C@H](CC(C)C)NC(=O)[C@H](CCCCN)NC(=O)CCC(=O)Nc1ccn([C@@H]2O[C@H](CO)[C@@H](O)C2(F)F)c(=O)n1)C(C)C)C(=O)N[C@@H](Cc1c[nH]c2ccccc12)C(N)=O` ({X1-Suc}-KLPVMW-NH2), the figure is 384 nM.

The values above are taken from BindingDB's records for doi:10.1039/c9md00489k (University of Porto, 2020).
